Test results published in patent publication US8592181B2, “Brazzein variant having higher sweetness and method for preparing multi-variant” (Chung-Ang University Industry-Academy Cooperation Foundation, priority 2009, dated 2013).
Where no end group is shown, it is not given here.

Key:
[1] = cited from earlier work; for Thermal stability: related art
sweetness = conditions: cited from earlier work
human sense of taste = test: Sweetness measured by human sense of taste (20 trained subjects, minimum concentration at which sweetness is first sensed); format: in vivo

Substance | Solubility and pH stability in water ([1]; Gao et al. 1999) | Thermal stability [1] | Sweetness relative to sugar (sucrose) (sweetness; related art) | Sweetness relative to the major type of brazzein (sweetness; Assadi-Porter et al. 2000) | Minimum stimulation level in which one senses sweetness for first time (human sense of taste; primary brazzein variants, 20 trained subjects) | Sweetness ratios of sucrose (1 g/100 ml) to primary brazzein variants (minor-type brazzein: 2000) (human sense of taste; relative to 1 g/100 ml sucrose threshold)
Brazzein: sweetener protein extracted from the fruit of Pentadiplandra brazzeana (Baillon) (QDKCKKVYENYPVSKCQLANQCNYDCKLDKHARSGECFYDEKRNLQCICDYCEY; UniProt P56552 1-54, looked up) | very high | very high |  |  |  | 
Monellin |  | low | 3,000 times |  |  | 
minor-type brazzein: wild-type minor type of brazzein, 53 amino acid residues without pyroglutamic acid at the amino-terminal region (DKCKKVYENYPVSKCQLANQCNYDCKLRKHARSGECFYDEKRNLQCICDYCEY; ends and bridges not checked; cysteine pairing not given here) [reference compound] |  |  |  | approximately twice | 500 μg/100 ml | 2000
